From patent publication US10716869B2, “Radiolabeled macrocyclic EGFR inhibitor” (Oncodesign SA, priority 2016, dated 2020)
Converted amounts (≈) assume the structure as drawn. “And” between values parts separate entries of the source, which are not always exact repeats. Equal values may be shown once. Read-outs that look alike come from different tables or passages of the source.

Columns and labels:
[1] = target: T1, EGFR L858R (human, 672-1210) (Homo sapiens, UniProt P00533, L858R); assay: radiometric protein kinase assay (33PanQinase Activity Assay); details: Tests 1-3 are repeat determinations; read-out: Biochemical IC50 EGFR L858R
T1 construct: (human, 672-1210)
T1 sequence (P00533 672-1210 L858R): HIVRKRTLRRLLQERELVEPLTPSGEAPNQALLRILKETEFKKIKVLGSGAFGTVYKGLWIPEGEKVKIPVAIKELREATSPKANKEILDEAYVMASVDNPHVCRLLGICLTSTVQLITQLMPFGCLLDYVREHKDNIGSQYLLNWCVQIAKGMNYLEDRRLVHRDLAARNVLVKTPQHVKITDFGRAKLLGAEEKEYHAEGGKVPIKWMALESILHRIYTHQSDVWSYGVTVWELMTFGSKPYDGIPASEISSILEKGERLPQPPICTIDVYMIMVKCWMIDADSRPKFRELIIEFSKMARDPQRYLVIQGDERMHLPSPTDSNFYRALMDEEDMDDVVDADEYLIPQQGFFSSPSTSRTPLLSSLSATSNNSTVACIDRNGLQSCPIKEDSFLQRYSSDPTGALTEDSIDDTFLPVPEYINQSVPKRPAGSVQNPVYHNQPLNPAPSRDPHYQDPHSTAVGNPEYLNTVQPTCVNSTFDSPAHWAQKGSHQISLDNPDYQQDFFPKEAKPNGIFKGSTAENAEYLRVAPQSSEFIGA
Experimental: (§1) The compounds were tested in 100% DMSO, all recombinant protein kinases and substrates with respective concentration are described in table 1.

[2] = target: T2, EGFR T790M/L858R (human, 672-1210) (Homo sapiens, UniProt P00533, L858R/T790M); assay: as above; details: Tests 1-3 are repeat determinations; read-out: Biochemical IC50 EGFR L858R/T790M
T2 construct: (human, 672-1210)
T2 sequence (P00533 672-1210 T790M/L858R): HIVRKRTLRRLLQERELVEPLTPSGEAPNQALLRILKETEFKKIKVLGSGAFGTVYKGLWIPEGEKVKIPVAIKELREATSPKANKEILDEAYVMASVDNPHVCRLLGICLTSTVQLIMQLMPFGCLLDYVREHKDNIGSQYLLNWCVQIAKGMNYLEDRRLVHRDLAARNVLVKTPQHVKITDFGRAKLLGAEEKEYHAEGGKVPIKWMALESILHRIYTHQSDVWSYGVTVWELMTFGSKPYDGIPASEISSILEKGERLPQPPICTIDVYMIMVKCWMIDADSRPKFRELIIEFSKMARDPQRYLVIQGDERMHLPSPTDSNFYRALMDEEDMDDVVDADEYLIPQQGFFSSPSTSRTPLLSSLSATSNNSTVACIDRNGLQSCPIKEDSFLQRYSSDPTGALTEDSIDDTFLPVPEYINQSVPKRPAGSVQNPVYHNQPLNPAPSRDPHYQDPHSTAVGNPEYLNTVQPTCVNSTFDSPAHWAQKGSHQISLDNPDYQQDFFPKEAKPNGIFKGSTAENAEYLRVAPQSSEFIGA
Experimental: as §1

[3] = target: T3, EGFR wt (human, 672-1210) (Homo sapiens, UniProt P00533); assay: as above; details: Tests 1-3 are repeat determinations; read-out: Biochemical IC50 EGFR WT (activated)
T3 construct: (human, 672-1210)
T3 sequence (P00533 672-1210): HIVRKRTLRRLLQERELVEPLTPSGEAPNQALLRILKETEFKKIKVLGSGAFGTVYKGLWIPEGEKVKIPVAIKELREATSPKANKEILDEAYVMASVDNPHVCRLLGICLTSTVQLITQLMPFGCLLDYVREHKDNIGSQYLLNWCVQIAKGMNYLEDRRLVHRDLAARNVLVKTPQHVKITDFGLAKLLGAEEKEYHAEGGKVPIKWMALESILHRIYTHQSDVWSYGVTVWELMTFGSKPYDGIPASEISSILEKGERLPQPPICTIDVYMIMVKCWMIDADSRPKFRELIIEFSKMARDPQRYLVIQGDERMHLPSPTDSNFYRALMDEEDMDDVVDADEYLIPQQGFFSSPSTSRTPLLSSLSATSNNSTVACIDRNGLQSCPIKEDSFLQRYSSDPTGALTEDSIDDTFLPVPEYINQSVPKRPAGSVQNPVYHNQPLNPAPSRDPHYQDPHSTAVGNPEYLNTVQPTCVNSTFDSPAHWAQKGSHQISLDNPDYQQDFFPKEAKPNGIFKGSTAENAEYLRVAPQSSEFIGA
Experimental: as §1

T790M (EGFR mutant) = T790M (EGFR mutant) (Homo sapiens, UniProt P00533, L858R/T790M); assay: as above; details: Test 1; read-out: Biochemical IC50 T790M
T790M (EGFR mutant), sequence (P00533 672-1210 T790M/L858R): as the sequence (P00533 672-1210 T790M/L858R) above
Experimental: A radiometric protein kinase assay (^33PanQinase® Activity Assay) was used for measuring the biochemical kinase activity of 3 protein kinases, EGFR wild-type and 2 EGFR mutants (L858R, L858R/T790M). The compounds were tested in 100% DMSO, all recombinant protein kinases and substrates with respective concentration are described in table 1.

[4] = tested on: panel of 92 wild-type kinases; assay: kinase selectivity, residual activity at 100 nM and 1 μM; details: for selectivity score S(50): 92 wild-type kinases
Text: Corresponding kinases and substrates were always tested at the ATP Km concentration.

NCI-H3255 (EGFR_L858R) = assay: MTS cell viability assay, 72 hours; assay type: cell-based, Human
Experimental: (§2) The cell lines that were used to assay the cellular activity of the compounds are detailed in table 3 hereafter:
(§3) Tumor cells grew as monolayer at 37° C. in a humidified atmosphere (5% CO2) in complete culture medium adapted to each cell line. The cellular activity of the compounds was assessed by measuring the viability of cancer cell in MTS assay using a tetrazolium compound (MTS, 3-(4,5-dimethylthiazol-2-yl)-5-(3-carboxymethoxy phenyl)-2-(4-sulfophenyl)-2H-tetrazolium) and an electron coupling reagent named PMS (phenazine methosulfate). MTS is bioreduced by cells into a formazan product that is directly soluble in culture medium without processing. The cells were seeded 24 hours before treatment at the appropriate density in their culture medium to be near 90% of confluence at the end of experiment in vehicle treated conditions. After addition of compounds, the cells were incubated for 72 hours.

NCI-H441 (EGFR WT) = assay: MTS cell viability assay, 72 hours; assay type: cell-based, Human; details: read-out: Cellular IC50 NCI-H441 (EGFR WT)
Experimental: as §2, §3

[5] = metabolic microsomal stability, human liver microsomes; assay type: in vitro ADME; details: pH 7.4, 0.5 mg/mL protein
Experimental: (§4) Metabolic microsomal stability was performed on human and rat liver microsomes. Microsomes (final protein concentration 0.5 mg/mL), 0.1 M phosphate buffer pH 7.4 and test compound (final substrate concentration=3 μM; final DMSO concentration=0.25%) are pre-incubated at 37° C. prior to the addition of NADPH (final concentration=1 mM) to initiate the reaction. Analysis is done with generic LC-MS/MS conditions to determine half-life and intrinsic clearance using standard equations. […] In human, Compound (Ia) metabolic stability was better than in rat and favorable for clinical studies.

[6] = target: EGFR phosphorylation in NCI-H441 (Homo sapiens, UniProt P00533); assay: EGFR Y1068 phosphorylation, Western blot; details: NCI-H441, 10 ng/ml EGF
EGFR phosphorylation in NCI-H441, sequence (P00533 25-1210): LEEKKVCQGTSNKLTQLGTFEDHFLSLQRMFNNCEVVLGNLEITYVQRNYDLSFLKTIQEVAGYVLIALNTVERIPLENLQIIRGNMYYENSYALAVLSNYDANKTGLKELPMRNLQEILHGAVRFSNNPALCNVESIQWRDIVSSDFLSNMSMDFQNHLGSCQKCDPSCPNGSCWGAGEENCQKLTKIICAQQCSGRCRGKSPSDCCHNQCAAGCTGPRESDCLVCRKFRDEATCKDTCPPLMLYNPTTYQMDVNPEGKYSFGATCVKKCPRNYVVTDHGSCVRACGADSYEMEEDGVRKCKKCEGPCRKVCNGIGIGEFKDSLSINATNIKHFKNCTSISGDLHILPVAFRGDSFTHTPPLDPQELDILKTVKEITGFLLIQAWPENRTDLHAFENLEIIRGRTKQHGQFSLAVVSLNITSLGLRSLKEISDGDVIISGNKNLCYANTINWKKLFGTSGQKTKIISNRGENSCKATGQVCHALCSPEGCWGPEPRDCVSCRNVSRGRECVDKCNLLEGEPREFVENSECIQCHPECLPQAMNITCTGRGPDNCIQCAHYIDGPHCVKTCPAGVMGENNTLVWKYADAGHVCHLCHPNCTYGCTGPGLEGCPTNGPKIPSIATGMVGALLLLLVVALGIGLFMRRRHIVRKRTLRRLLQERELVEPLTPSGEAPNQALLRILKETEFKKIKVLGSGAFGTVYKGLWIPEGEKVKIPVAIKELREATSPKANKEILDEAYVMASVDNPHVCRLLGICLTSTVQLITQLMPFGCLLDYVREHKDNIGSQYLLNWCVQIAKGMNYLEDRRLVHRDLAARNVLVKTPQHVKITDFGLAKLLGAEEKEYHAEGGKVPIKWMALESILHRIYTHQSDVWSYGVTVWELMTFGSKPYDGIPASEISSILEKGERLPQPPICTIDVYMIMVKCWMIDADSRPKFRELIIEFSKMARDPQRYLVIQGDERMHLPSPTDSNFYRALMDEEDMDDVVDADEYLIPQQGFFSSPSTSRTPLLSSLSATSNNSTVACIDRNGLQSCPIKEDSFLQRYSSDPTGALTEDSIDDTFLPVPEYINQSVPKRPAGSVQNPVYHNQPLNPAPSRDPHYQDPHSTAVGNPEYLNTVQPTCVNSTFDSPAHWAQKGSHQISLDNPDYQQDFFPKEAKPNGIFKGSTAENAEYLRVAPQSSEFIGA

[7] = tested on: NCI-H1975 tumors (double mutation); assay: in vivo specificity: competition for uptake of Compound (I); parameters: species or system rats; details: gefitinib 2 mg/rat or Compound (Ia) 1 mg/rat
[8] = kinetic solubility in PBS at pH 7.4; assay type: physicochemical; details: pH 7.4, aqueous buffer, kinetic from dmso stock
Experimental: The kinetic solubility of the compounds was assessed in PBS at pH 7.4.

[9] = tested on: NCI-H1975 (EGFR L858R/T790M); assay: MTS cell viability assay, 72 hours; assay type: cell-based; details: Homo sapiens, NCI-H1975, 72 h, read-out: Cellular IC50 NCI-H1975 (EGFR L858R/T790M)
Experimental: as §2, §3

MCF-7 = assay: MTS cell viability assay, 72 hours; assay type: cell-based; details: Homo sapiens, MCF7, 72 h, negative control, does not express EGFR, read-out: Cellular IC50 MCF-7
Experimental: as §2, §3

[10] = metabolic microsomal stability, rat liver microsomes; assay type: in vitro ADME; details: pH 7.4, 0.5 mg/mL protein
Experimental: as §4

[11] = tested on: NCI-H3255 tumors (simple mutation); assay: in vivo specificity: competition for uptake of Compound (I); parameters: species or system rats; details: gefitinib 2 mg/rat or Compound (Ia) 1 mg/rat
[12] = target: constitutively active EGFR in NCI-H3255 (Homo sapiens, UniProt P00533, L858R); assay: EGFR Y1068 phosphorylation, Western blot
WT NCI-H441 tumors = assay: in vivo specificity: competition for uptake of Compound (I); parameters: species or system rats; details: gefitinib 2 mg/rat or Compound (Ia) 1 mg/rat
[13] = target: double mutant EGFR expressed by NCI-H1975 (Homo sapiens, UniProt P00533, L858R/T790M); assay: EGFR Y1068 phosphorylation, Western blot
double mutant EGFR expressed by NCI-H1975, sequence (P00533 25-1210 T790M/L858R): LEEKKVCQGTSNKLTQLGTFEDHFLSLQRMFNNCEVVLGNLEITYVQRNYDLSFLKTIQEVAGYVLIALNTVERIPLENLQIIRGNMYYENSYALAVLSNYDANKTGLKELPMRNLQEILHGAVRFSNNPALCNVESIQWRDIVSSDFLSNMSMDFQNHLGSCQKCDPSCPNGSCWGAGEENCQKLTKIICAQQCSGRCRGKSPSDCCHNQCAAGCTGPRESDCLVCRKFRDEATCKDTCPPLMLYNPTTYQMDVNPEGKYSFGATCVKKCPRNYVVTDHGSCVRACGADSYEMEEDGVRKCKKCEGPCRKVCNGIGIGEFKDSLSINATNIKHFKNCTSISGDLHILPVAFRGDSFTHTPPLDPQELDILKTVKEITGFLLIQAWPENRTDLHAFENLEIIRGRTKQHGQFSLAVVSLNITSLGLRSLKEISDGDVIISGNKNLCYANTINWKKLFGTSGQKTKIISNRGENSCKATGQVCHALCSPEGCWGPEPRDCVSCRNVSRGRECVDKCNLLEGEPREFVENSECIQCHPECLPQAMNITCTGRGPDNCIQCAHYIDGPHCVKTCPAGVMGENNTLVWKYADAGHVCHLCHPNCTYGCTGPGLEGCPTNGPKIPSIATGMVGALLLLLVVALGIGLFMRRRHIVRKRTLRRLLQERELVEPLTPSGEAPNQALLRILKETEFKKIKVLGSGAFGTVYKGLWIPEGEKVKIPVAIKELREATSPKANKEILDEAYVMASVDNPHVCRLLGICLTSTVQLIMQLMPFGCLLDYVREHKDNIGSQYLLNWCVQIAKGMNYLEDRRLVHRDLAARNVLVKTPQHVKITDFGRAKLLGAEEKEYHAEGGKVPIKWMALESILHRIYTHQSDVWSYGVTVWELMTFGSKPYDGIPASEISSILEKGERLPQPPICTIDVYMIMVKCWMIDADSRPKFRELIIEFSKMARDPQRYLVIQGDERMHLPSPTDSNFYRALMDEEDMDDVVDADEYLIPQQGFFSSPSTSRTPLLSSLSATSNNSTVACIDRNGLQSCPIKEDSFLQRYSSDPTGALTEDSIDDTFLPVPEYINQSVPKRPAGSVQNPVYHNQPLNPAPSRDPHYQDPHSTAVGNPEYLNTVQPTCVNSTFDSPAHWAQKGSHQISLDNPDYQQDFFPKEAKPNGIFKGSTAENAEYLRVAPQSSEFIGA

[14] = Homo sapiens, NCI-H3255, 72 h, read-out: Cellular IC50 NCI-H3255 (EGFR_L858R)

Row | IC50 [1] | IC50 [2] | IC50 [3] | IC50 (T790M (EGFR mutant)) [nM] | selectivity score S(50) ([4]; at 100 nM) | selectivity score S(50) ([4]; at 1 μM) | IC50 (NCI-H441 (EGFR WT); Homo sapiens, NCI-H441, 72 h) [µM] | IC50 (NCI-H3255 (EGFR_L858R); [14]) [nM] | Compound | change of uptake of Compound (I) after competition (WT NCI-H441 tumors) | also measured
1 | 2.7 nM | 77.7 nM | 3.1 nM | 54.7 | 0.6% | 2.8% | 34.7 | – | CC(C)[C@H]1NC(=O)Cc2ccc(Cl)cc2Nc2ncnc3cc(OCCF)c(cc23)OCCCNC1=O [Compound (IIIa)] | – | IC50 (NCI-H3255 (EGFR_L858R); Homo sapiens, NCI-H3255, 72 h, read-out: mean IC50 on NCI-H3255): 6.1 nM; IC50 (NCI-H441 (EGFR WT)): > 25 µM
2 | < 10 nM and 6.3 nM | 924 nM | < 10 nM and 5.9 nM | 1010 | 2.2% and 2.5% | 11.9% and 13% | > 25 | 30 | CC(C)[C@@H]1NC(=O)Cc2ccc(Cl)cc2Nc2ncnc3cc(OCCF)c(cc23)OCCCNC1=O [Compound (IIa)] | – | wild-type kinases inhibited for more than 50% ([4]; at 100 nM): EGFR and RIPK2 were the only wild-type kinases inhibited for more than 50%; number of other kinases with inhibition of >50% ([4]; at 1 μM): 9; IC50 (NCI-H3255 (EGFR_L858R); read-out: Cellular IC50 NCI-H3255 (EGFR_L858R)): 49 nM
3 | 3 nM and 8 nM and 4.1 nM | 372 nM and 990 nM and 246 nM | 3.2 nM and 5 nM and 5.7 nM | – | – | – | 34.7 ± 24 | 6 ± 2 | CC(C)C1NC(=O)Cc2ccc(Cl)cc2Nc2ncnc3cc(OCCF)c(cc23)OCCCNC1=O (stereo not drawn) [Compound (Ia)] | 5% | microsomal CLint at 3 μM [5]: 7.76 ± 2.53 µL/min/mg; half-life at 3 μM ([5]; read-out: human microsomal stability t1/2): 179 min; inhibition of EGF-induced EGFR Y1068 phosphorylation [6]: almost full inhibition observed at 1 μM; change of T/M ratios of Compound (I) after competition [7]: −55%; solubility kinetic [8]: 88 µM (≈ 46.6 µg/mL); IC50 [9]: 5 ± 1.4 µM; IC50 (MCF-7): 62.1 µM; microsomal CLint at 3 μM [10]: 37.9 ± 1.89 µL/min/mg; half-life at 3 μM ([10]; read-out: rat microsomal stability t1/2): 36.5 min; decrease of T/M ratios of Compound (I) by competition [11]: 52%; concentration at which full inhibition of constitutively active EGFR was observed [12]: ~100 nM; inhibition of constitutively active double mutant EGFR [13]: partially inhibit EGFR activity at 10 μM
4 | – | – | – | – | – | – | – | – | COc1cc2ncnc(Nc3ccc(F)c(Cl)c3)c2cc1OCCCN1CCOCC1 [Gefitinib, gefitinib, reference compound] | +16% | –
